Test results published in US12540143B2, “Methods and compositions for targeted protein degradation” (Ranok Therapeutics (Hangzhou) Co. Ltd., priority 2019, dated 2026).

Columns and labels:
HSP90α = HSP90α (Homo sapiens, UniProt P07900); test: HSP90α Binding Fluorescent Polarization (FP) Assay; settings: competition with FITC-geldanamycin; read-out: HSP90 Binding Potency
Method: HSP90α Binding Fluorescent Polarization (FP) Assay
A master mix was prepared with assay buffer, BSA and FITC-geldanamycin. In a 96-well plate, a serial 3-fold dilution of each compound was prepared ranging from 40 μM down until 2.0 nM. Also in a 96-well plate, recombinant HSP90α protein was diluted to 28 μg/ml. Then, in a 384-well plate, 10 μl of master mix and 5 μl of compound dilution were added per well to duplicate wells and mixed by brief shaking. Then 5 μl of diluted HSP90α protein was added per well, mixed by brief shaking, incubated at 25° C. for 30, 60 and 120 min and fluorescence was measured on an En Vision Plate Reader. Background-subtracted mP values were calculated from En Vision raw data and a four-parameter “log[inhibitor] vs. response” curve was fitted using GraphPad Prism 7.0.

MV4-11 cells = test: MV4-11 Cytotoxicity Assay; assay type: cell-based, human; settings: Homo sapiens, MV4-11, 72 h, read-out: MV4-11 cytotoxicity
BRD4 (BD1+BD2) = molecular target: T1, BRD4 (BD1+BD2) (Homo sapiens, UniProt O60885); test: BRD4 (BD1 + BD2) Binding HTRF Assay; settings: read-out: BRD4 Binding Potency
T1 construct: 1.8 μg/ml recombinant BRD4 (BD1+BD2 domains) protein
Method: A master mix was prepared with assay buffer, 1.8 μg/ml recombinant BRD4 (BD1+BD2 domains) protein, and 200-fold dilutions of Tb-labeled donor and dye-labeled acceptor. 40-fold dilutions of acetylated and non-acetylated ligands were prepared in 1×BRD TR-FRET assay buffer. Also, a serial 3-fold dilution of each compound was prepared ranging from 40 μM down until 2.0 nM. In a 384-well plate, 5 μl diluted ligand and 5 μl of compound dilution were added per well to duplicate wells and mixed by brief shaking. Then 10 μl of master mix was added per well, mixed by brief shaking, incubated at 25° C. for 2 hr and fluorescence was measured on an En Vision Plate Reader. The 665 nm/615 nm ratio was calculated from EnVision raw data. Data were normalized using whole-plate averages of “positive” and “negative” readings. A four-parameter “log[inhibitor] vs. response” curve was fitted using GraphPad Prism 7.0.

Cc1sc2c(c1C)C(c1ccc(Cl)cc1)=N[C@@H](CCN1CCC(CN3CCN(Cc4ccc(-n5c(O)nnc5-c5cc(C(C)C)c(O)cc5O)cc4)CC3)CC1)c1nnc(C)n1-2 [Compound 76, trifluoroacetic acid]
IC50 (HSP90α): 100 to 1000 nM | IC50 (MV4-11 cells): < 100 nM | IC50 (BRD4 (BD1+BD2)): > 1000 nM
